Experimental data: US11420977B2, “Late SV40 (LSF) inhibitors” (Trustees of Boston University, priority 2018, dated 2022)

Columns and labels:
CaCo-2 cells = test: MTS cell proliferation assay, CaCo-2; format: cell-based; settings: Homo sapiens, 72-hour incubation
Experimental: (§1) Cell lines and culture conditions: Human colon cancer cells Caco-2, HT29 and HCT15, human pancreatic cancer cells BxPC3, CFPAC-1, and CAPAN-2, liver cancer cells SNU423 and kidney cells HEK293, were obtained from American Type Culture Collection (Rockville, USA). HeLa, DLD1, U937, THP-1, and NIH3T3 cells were obtained from ATCC. Huh7 cells were obtained from (Japanese Cancer Resources Bank). HeLa cells, Huh7, DLD1 and NIH-3T3 cells were cultured in DMEM (Dulbecco's modification of Eagle's Medium; Corning) supplemented with 10% Fetal Bovine Serum (FBS; Invitrogen) and 10% Fetal Calf Serum (FCS; Atlanta Biologicals) respectively. […]
(§2) MTS cell proliferation assay: Cells were detached from the plates using trypsin (0.25% for 3 mins, ATCC) and counted using a hemocytometer and were plated at 3000-1500 cells per well, in a 96-well format. […] After a 72-hour (or 120 hrs for BxPC3, CAPAN-2, SNU423) incubation with compound or vehicle, cell growth was assessed via the Promega CellTiter 96® AQueous One Solution Cell Proliferation Assay, a colorimetric method to determine the number of viable cells. 20 μL of the CellTiter 96® AQueous One Solution Reagent was added directly into cultured wells and incubated for approximately one hour, after which the absorbance at 490 nm was read with a 96-well plate reader (Opys MR Microplate Reader). […]

HCT-15 cells = test: MTS cell proliferation assay, HCT-15; format: cell-based; settings: Homo sapiens, 72-hour incubation
Experimental: as §1, §2

HT-29 cells = test: MTS cell proliferation assay, HT-29; format: cell-based; settings: Homo sapiens, 72-hour incubation
Experimental: as §1, §2

SNU-423 cells = test: MTS cell proliferation assay, SNU-423; format: cell-based; settings: Homo sapiens, 120 hrs incubation
Experimental: (§3) Cell lines and culture conditions: Human colon cancer cells Caco-2, HT29 and HCT15, human pancreatic cancer cells BxPC3, CFPAC-1, and CAPAN-2, liver cancer cells SNU423 and kidney cells HEK293, were obtained from American Type Culture Collection (Rockville, USA). HeLa, DLD1, U937, THP-1, and NIH3T3 cells were obtained from ATCC. Huh7 cells were obtained from (Japanese Cancer Resources Bank). HeLa cells, Huh7, DLD1 and NIH-3T3 cells were cultured in DMEM (Dulbecco's modification of Eagle's Medium; Corning) supplemented with 10% Fetal Bovine Serum (FBS; Invitrogen) and 10% Fetal Calf Serum (FCS; Atlanta Biologicals) respectively. U937, BxPC3, HCT15, SNU423 and THP-1 cells were grown in RPMI-1640 (Roswell Park Memorial Institute; Corning) supplemented with 10% Fetal Bovine Serum (FBS; Invitrogen). CFPAC-1 cells were cultured in Iscove's Modified Dulbecco's Medium (ATCC) supplemented with 10% FBS. CAPAN-2 and HT29 cells were cultured in McCoy's 5a medium supplemented with 10% FBS. Caco2 and HEK293 cells were grown in Eagle's Minimum Essential Medium (ATCC) with final 20% FBS concentration. All cells were maintained at 37° C. in 5% CO2 at constant 70% humidity.
(§4) MTS cell proliferation assay: Cells were detached from the plates using trypsin (0.25% for 3 mins, ATCC) and counted using a hemocytometer and were plated at 3000-1500 cells per well, in a 96-well format. The cells were seeded in the inner wells of 96 well plates, and media was added to the outer wells (blank). For NIH-3T3, 1500 cells were seeded in the inner wells of 96-well plates, and after 20 hours cells were treated with compound or DMSO (vehicle control) at appropriate concentrations (DMSO at final concentration of 1%). For other adherent cells 3000 HeLa, BxPC3, CFPAC-1, CAPAN-2, HEK293, HCT15, HT29, CaCo2, DLD1, Huh7 or SNU423 cells were seeded in in each well approximately 20 hrs prior to the treatment. For U937 and THP-1 suspension cells, 2500 cells were added to the wells of a 96-well plate on the day of treatment. After a 72-hour (or 120 hrs for BxPC3, CAPAN-2, SNU423) incubation with compound or vehicle, cell growth was assessed via the Promega CellTiter 96® AQueous One Solution Cell Proliferation Assay, a colorimetric method to determine the number of viable cells. 20 μL of the CellTiter 96® AQueous One Solution Reagent was added directly into cultured wells and incubated for approximately one hour, after which the absorbance at 490 nm was read with a 96-well plate reader (Opys MR Microplate Reader). GI50 values were determined from plots of the percentage of compound-treated cell growth to vehicle cell growth vs. compound concentration (GraphPad Prism; non-linear regression, log inhibitor verse normalized response with variable slope).

HuH7 cells = test: MTS cell proliferation assay, HuH7; format: cell-based; settings: Homo sapiens, Huh-7, 72-hour incubation
Experimental: as §3, §4

[1] = biological target: T1, SET8 methylation of Histone H4 (Homo sapiens, UniProt Q9NQR1); test: In vitro methylation assay, SET8 methylation of Histone H4; format: biochemical; settings: histone H4 as substrate (FIG. 5C)
T1 construct: using full-length or overlapping segments of SET8 fused to GST; made in house; host or cells: E. coli
T1 sequence (Q9NQR1 1-352 isoform Q9NQR1-2): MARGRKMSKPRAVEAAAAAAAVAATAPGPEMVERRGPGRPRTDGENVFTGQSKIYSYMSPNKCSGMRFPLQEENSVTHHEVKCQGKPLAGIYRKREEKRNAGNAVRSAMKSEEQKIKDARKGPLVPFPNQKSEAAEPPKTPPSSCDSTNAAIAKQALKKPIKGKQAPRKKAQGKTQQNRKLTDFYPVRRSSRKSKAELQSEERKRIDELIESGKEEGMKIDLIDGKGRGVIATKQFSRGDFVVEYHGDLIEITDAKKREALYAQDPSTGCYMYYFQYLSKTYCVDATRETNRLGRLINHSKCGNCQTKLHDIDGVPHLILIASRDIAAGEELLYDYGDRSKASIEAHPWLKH
Experimental: (§5) One μg of recombinant GST-SET8 (in 50% glycerol) and 2 μg of the purified tubulin (MP-Bioscience) were incubated with radioactively labeled [3H] AdoMet at room temperature for overnight. As indicated, recombinant His-LSF protein or FQI1 inhibitor were added to the reaction. Samples were separated by electrophoresis through a 10% Tricine Gel (Invitrogen) and the gel was stained with Coomassie Brilliant Blue and incubated with EN3HANCE (PerkinElmer) solution. The gel was dried and exposed to autoradiography film for 1 week. Two […] of each peptide and 2 μg of purified SET8 or full-length SETD2 (Active Motif) were incubated with radioactively labeled [3H] AdoMet at room temperature overnight. Samples were spotted onto P81 filters (Whatman 3698325) and the filter were washed 3 times with 0.3 M ammonium bicarbonate. The ratio of incorporated [^3H]CH3 was determined using liquid scintillation counting.

RPE-hTERT Flp-In cells = test: FQI34/FQI1 comparison, mitotic defects in RPE-hTERT Flp-In cells; format: cell-based; settings: one hour treatment; FIG. 33
Experimental: RPE-hTERT Flp-In cells were incubated in serum-free DMEM:F12 media for 24 hours to synchronize the cells in G0/G1. Cells were stimulated to reenter the cell cycle with DMEM:F12 media containing 10% Fetal Bovine Serum. After 24 hours, the cells were treated with DMSO (vehicle), FQI1 (2.5 μM or 5 μM), or FQI34 (250 nM or 500 nM) for one hour. The cells were washed twice with 1×Phosphate-buffered Saline and fixed with PHEM (3.7% formaldehyde in 100 mM PIPES at pH 6.8, 10 mM EGTA, 1 mM magnesium chloride, and 0.2% Triton X-100) for 10 minutes at room temperature. The fixed cells were stained for α-tubulin using a mouse anti-α-tubulin antibody (Fisher #62204). Secondary antibodies were: DMSO/FQI1 samples—goat anti-mouse IgG conjugated to Alexa 546 (Thermo Fisher #A11003); FQI34 samples—goat anti-mouse IgG conjugated to Texas Red (Fisher #T-862). DNA was stained with Hoechst 33342. Cells were imaged using a Nikon NiE using the 40× objective and images were captured using a DS-Qi1 Mc 12 bit camera. Scale bars and merged images were generated using Fiji software.

aggressive HCC cell line = settings: in vitro; cited from earlier work
[2] = biological target: T2, tubulin methylation by SET8 (Sus scrofa, UniProt M3V851); test: In vitro methylation assay, tubulin methylation by SET8; format: biochemical, porcine; settings: at 100 μM (FIG. 5B lane 4); no LSF added
T2 construct: consistent with the presence of LSF in the tubulin preparations; purchased MP-Bioscience; host or cells: porcine brain (tubulin); GST-SET8 recombinant
T2 sequence (M3V851 1-502): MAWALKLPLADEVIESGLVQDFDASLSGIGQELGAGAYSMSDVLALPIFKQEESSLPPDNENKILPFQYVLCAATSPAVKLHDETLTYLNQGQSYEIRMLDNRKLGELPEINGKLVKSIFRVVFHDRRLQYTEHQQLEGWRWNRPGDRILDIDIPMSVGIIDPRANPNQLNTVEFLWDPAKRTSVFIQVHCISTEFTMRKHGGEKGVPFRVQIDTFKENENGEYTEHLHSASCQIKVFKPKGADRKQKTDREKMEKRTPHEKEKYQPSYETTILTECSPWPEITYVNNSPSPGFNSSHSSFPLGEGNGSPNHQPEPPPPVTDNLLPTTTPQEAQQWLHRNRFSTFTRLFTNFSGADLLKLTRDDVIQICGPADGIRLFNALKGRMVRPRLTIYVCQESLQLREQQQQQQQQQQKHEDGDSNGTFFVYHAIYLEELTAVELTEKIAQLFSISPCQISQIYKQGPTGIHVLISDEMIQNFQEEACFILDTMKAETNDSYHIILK
Experimental: as §5

[3] = test system: tubulin methylation by SET8; test: as above; format: biochemical, porcine; settings: with 862 nM LSF (FIG. 9B)
Experimental: as §5

LSF-tubulin interaction = biological target: T3, LSF-tubulin interaction (Homo sapiens, UniProt Q12800); test: Co-immunoprecipitation of LSF with endogenous α-tubulin from HEK293T cells; format: cell-based; settings: 2.5 μM for 24 hr
T3 construct: endogenous in cells; host or cells: HEK293T
T3 sequence (Q12800 whole entry): as the sequence (M3V851 1-502) above, with N168T, P302S counted along it
Experimental: HEK293T, HeLa and COS7 cells were cultured in DMEM media supplemented with 10% FBS. FQI1 treatment of HEK293T cells was for 24 hours at 37° C. with 2.5 μM FQI1. Immunoprecipitation (IP) and immunofluorescence experiments were carried out as described previously. For the immunoprecipitation, 1 mg of total HEK293T cellular extract was incubated with 5 μg of either anti-SET8 antibody (Active Motif) or anti-LSF antibody (Millipore). The immunoprecipitates were blotted with anti-α tubulin, anti-β tubulin (Sigma T9026, T8328), anti-SET8 or anti-LSF (BD) antibodies as per the manufacturer's dilution recommendations. Cellular extracts were also immunoprecipitated with normal IgG (Cell Signaling Technology) as a negative control for all IP experiments.

synchronized HeLa cells = test: Mitotic defects in synchronized HeLa cells; format: cell-based, human
Experimental: FIG. 8B is an image showing DAPI staining of synchronized cells, treated as indicated in panel FIG. 8A and analyzed at 20× magnification. Samples were collected at 0, 3, 6, and 19 hours post release from a G1/S block in presence of DMSO or FQI1. Insets represent individual cells in more detail. Arrows represent cells in metaphase or prometaphase, respectively, at the 6 hour time point. FIG. 8C is a bar graph showing quantification from 75-100 total cells analyzed by DNA and α-tubulin morphologies, indicating cells containing multi-asters, at 9 hours post release from a G1/S block. Data are representative of 2 experiments. FIG. 8D is a graph showing that the mitotic arrest mediated by limited FQI1 treatment of synchronized cells is reversible. Synchronized cells were released in the presence of 5 μM of FQI1 from a G1/S block. Ten hours after the release, the cells were washed and then either incubated with media alone or re-incubated with media in the presence of 5 μM FQI1. Samples were collected 24 hours post release. Fixed cells were stained with propidium iodide to analyze DNA content. […]

HCC tumors = settings: cited from earlier work
tubulin = biological target: T4, tubulin (Sus scrofa, UniProt P02550+P02554); test: Tubulin polymerization assay (Cytoskeleton kit); format: biochemical; settings: FIG. 4C
T4 construct: purchased Cytoskeleton
T4 sequence (P02550 whole entry): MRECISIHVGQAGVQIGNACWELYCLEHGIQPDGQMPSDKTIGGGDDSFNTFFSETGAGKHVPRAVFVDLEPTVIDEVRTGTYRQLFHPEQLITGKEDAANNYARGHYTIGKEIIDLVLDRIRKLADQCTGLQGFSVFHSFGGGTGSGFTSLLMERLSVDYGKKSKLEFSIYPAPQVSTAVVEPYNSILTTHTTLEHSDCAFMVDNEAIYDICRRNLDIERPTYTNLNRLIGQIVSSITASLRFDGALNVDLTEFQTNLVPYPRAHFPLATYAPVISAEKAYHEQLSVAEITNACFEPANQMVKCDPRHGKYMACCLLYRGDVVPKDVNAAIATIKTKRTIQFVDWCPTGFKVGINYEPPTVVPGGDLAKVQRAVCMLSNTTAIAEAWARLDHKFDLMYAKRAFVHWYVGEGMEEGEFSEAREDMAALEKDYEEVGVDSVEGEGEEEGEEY
T4 sequence (P02554 whole entry): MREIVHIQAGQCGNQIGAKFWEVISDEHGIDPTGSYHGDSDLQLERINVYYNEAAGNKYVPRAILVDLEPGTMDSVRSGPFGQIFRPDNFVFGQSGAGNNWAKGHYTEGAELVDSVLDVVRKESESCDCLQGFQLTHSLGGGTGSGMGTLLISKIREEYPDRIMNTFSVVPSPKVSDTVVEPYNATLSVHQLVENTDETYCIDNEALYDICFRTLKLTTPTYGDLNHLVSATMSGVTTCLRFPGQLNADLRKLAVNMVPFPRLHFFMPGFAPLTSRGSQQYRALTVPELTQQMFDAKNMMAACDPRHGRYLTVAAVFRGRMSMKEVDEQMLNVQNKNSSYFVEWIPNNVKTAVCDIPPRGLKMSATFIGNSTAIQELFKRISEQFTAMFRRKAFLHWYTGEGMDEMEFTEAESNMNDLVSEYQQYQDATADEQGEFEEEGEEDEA
Experimental: Quantitative determination of tubulin polymerization in vitro was carried out using the in vitro polymerization assay kits from either Millipore (17-10194) or Cytoskeleton (FQI1 assay only) according to the manufacturer's conditions. For the Millipopre kit, thawed tubulin was mixed with purified His-LSF, His-SET8 proteins or FQI1 in 70 μL final volumes of 1×PB-GTP solutions, and the 96-well plate was transferred to the pre-warmed (37° C.) SpectraMax M5 Microplate Reader to read UV-Visible Absorbance. Tubulin polymerization was followed by measuring the turbidity variation (light scattering) every 1 min at 350 nm for 1 hr.

synchronized HCC cells = test: Mitotic phenotypes in synchronized HCC cells; format: cell-based; settings: cells synchronized at G1/S border, released in presence of 5 μM
Experimental: FIG. 4A is a graph showing tubulin polymerization assay in the presence of low concentrations of LSF (Millipore kit). FIG. 4B are bands showing co-immunoprecipitation of LSF with endogenous α-tubulin from HEK293T cells which was disrupted upon treatment with 2.5 μM FQI1 for 24 hr. FIG. 4C is a graph showing tubulin polymerization assay in the presence of FQI1 and FQI2 (Cytoskeleton kit). Nocodazole was used as a control to inhibit polymerization. […] Cells were synchronized at the G1/S border and released in presence of 5 μM FQI1. Fixed cells were stained with α-tubulin antibody and DAPI.

GI50 (CaCo-2 cells) [nM] | GI50 (HCT-15 cells) [nM] | GI50 (HT-29 cells) [nM] | GI50 (SNU-423 cells) [nM] | GI50 (HuH7 cells) [nM] | SMILES | effect on SET8 methylation of Histone H4 [1] | chromosome and spindle phenotype (DNA and α-tubulin immunofluorescence) (RPE-hTERT Flp-In cells) | apoptosis in HCC cell line (aggressive HCC cell line) | decrease of tubulin methylation by SET8 [2] [fold] | effect on enhancement of tubulin methylation by exogenously added LSF [3] | co-immunoprecipitation of LSF with endogenous α-tubulin (LSF-tubulin interaction) | reversibility of mitotic arrest after washout (synchronized HeLa cells; 5 μM for 10 hours, then washout, 24 hours post release) | multi-aster formation (synchronized HeLa cells; synchronized cells, short treatment prior to mitosis (FIG. 8C)) | toxicity to normal tissues (HCC tumors; mouse HCC models) | tumor growth in mouse HCC models (HCC tumors; multiple mouse HCC models) | effect on tubulin polymerization in vitro (tubulin) | mitotic phenotype (synchronized HCC cells)
141 | 18 | 398 | 141 | 70 | CCOc1cc(N(C)C)ccc1C1CC(=O)Nc2cc3c(cc21)OCCO3 (racemic) [FQI-37, 9-[4-(dimethylamino)-2-ethoxy-phenyl]-3,6,8,9-tetrahydro-2H-[1,4]dioxino[2,3-g]quinolin-7-one] | – | – | – | – | – | – | – | – | – | – | – | –
– | – | – | 60 | 70 | CCOc1cc(N(C)C)ccc1[C@H]1CC(=O)Nc2cc3c(cc21)OCCO3 [(S)-FQI-37] | – | – | – | – | – | – | – | – | – | – | – | –
– | – | – | – | – | CCOc1ccccc1C1CC(=O)Nc2cc3c(cc21)OCO3 (stereo not shown) [FQI1] | does not affect | condensed, but nonaligned chromosomes and disrupted spindles | induces apoptosis | ~3 | inhibited the ability of exogenously added LSF to enhance methylation of tubulin by SET8 | disrupted | reversible | concentration-dependent increase in multi-aster formation | no observable toxicity to normal tissues | significantly inhibits tumor growth | inhibited tubulin polymerization | abnormal mitotic phenotypes
